Results published in EPA's ToxValDB 9.5 (doi:10.2903/j.efsa.2006.89r).
≈ marks a conversion by molar mass, not a printed value.

How the values were obtained:
Anas platyrhynchos = conditions: oral, mortality
Apis mellifera = conditions: acute; duration: 48 hours; dermal; mortality
Bibionidae = conditions: chronic/long-term; duration: 28 days
Canidae = conditions: oral, Dog Other, clinical signs
Colinus virginianus = conditions: reproduction developmental
Daphnia magna = conditions: acute; duration: 48 hours; mortality
Lepomis macrochirus = conditions: acute; duration: 96 hours; mortality

CCOC(=O)CCN(SN(C)C(=O)Oc1cccc2c1OC(C)(C)C2)C(C)C [Benfuracarb]
LD50 (Anas platyrhynchos; acute, unspecified): 19.8 mg/kg
LC50 (Anas platyrhynchos; short-term, feed): 15 mg/kg-day
LD50 (Apis mellifera): 0.19 µg/piece
NOEC (Bibionidae): 0.001 mg/L
NOAEL (Canidae; chronic, duration: 2 years): 2.5 mg/kg-day
NOAEL (Canidae; chronic, duration: 6 months): 2.5 mg/kg-day
NOAEL (Canidae; subchronic, duration: 13 weeks): 0.625 mg/kg-day
NOEC (Colinus virginianus): 8.93 mg/kg-day
LC50 (Daphnia magna): 0.0099 µg/mL (≈ 0.0241 µM)
LC50 (Lepomis macrochirus): 0.017 µg/mL (≈ 0.0414 µM)
LD50 (Rattus norvegicus; acute, oral, mortality): 205 mg/kg
NOAEL (Rattus norvegicus; reproduction developmental, reproduction): 1.2 mg/kg-day
NOAEL (Rattus norvegicus; short-term, duration: 28 days, clinical chemistry): 1.8 mg/kg-day
